Data on 15 molecules can be found in PubChem BioAssay (NCI).

Molecules are shown by their SMILES.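 Growth conditions: 96-well plates. Treatment: test compound, 48 hours, 5 concentrations. Analysis: linear interpolation between bracketing concentrations; unreached endpoints set to highest concentration. GI50: concentration for 50% inhibition of growth. TGI marks complete inhibition of growth.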

Test systems include MDA-MB-435; SK-MEL-28 melanoma; CAKI-1 renal; OVCAR-4 ovarian; UO-31 renal; T-47D breast; HS 578T breast; BT-549 breast.
Common to all, as to test: NCI tumour cell line growth inhibition, 48 h

Consider `CCc1cc2c(cc1O)CC[C@@H]1[C@@H]2CC[C@]2(C)[C@@H](O)CC[C@@H]12`, for which the TGI in the assay with MDA-MB-435 was 4.99 µM; with SK-MEL-28 melanoma it was 16.3 µM; in the assay with CAKI-1 renal it was 20.8 µM; in the assay on OVCAR-4 ovarian, 27.3 µM; in the assay on UO-31 renal, 21.8 µM; in the assay on T-47D breast it was 32.9 µM.

For the molecule `Nc1ccc(Oc2ccc(C34CC5CC(C3)CC(c3ccc(Oc6ccc(N)c(O)c6)cc3)(C5)C4)cc2)cc1O`, the TGI with SK-MEL-28 melanoma is 6.21 µM; in the assay on CAKI-1 renal, 3.57 µM; with HS 578T breast, 4.97 µM; in the assay on OVCAR-4 ovarian it was 5.28 µM; in the assay with BT-549 breast, 3.37 µM; with UO-31 renal, 3.23 µM. The TGI with T-47D breast turned out to be 4.07 µM.

In the case of `CC(=O)O[C@H]1C(=O)[C@@]2(C)C(C(OC(=O)c3ccccc3)[C@]3(O)CC(OC(=O)C(O)C(NC(=O)c4cccc(Cl)c4)c4ccccc4)C(C)=C1C3(C)C)[C@]1(OC(C)=O)CO[C@@H]1C[C@@H]2O` (stereo not given in full), the TGI in the assay on MDA-MB-435 is 0.417 µM; in the assay with CAKI-1 renal, > 10 µM; with OVCAR-4 ovarian, > 10 µM; in the assay on BT-549 breast, > 10 µM.

In the case of `N#Cc1ccccc1C#C/C=C\C#Cc1ccccn1`, the TGI was 20.4 µM in the assay with MDA-MB-435; 36 µM in the assay on SK-MEL-28 melanoma; 83.1 µM in the assay on CAKI-1 renal; 38.3 µM in the assay on HS 578T breast; > 100 µM in the assay on OVCAR-4 ovarian; 32.3 µM with UO-31 renal. The same molecule returned a TGI in the assay with T-47D breast of 62.5 µM.

In the case of `OC[C@H](O)[C@@H](OCc1ccccc1)[C@H](NCc1ccccc1)c1cccs1`, the TGI with MDA-MB-435 is > 100 µM; in the assay with SK-MEL-28 melanoma, > 100 µM; with CAKI-1 renal, > 100 µM; in the assay with OVCAR-4 ovarian it was > 100 µM; with BT-549 breast it was > 100 µM; in the assay on UO-31 renal, 68.8 µM. In the assay with T-47D breast, the TGI was > 100 µM.

For the molecule `O=C(O)C(=Cc1ccc(-c2ccc([N+](=O)[O-])cc2)o1)C(=O)O`, the TGI in the assay with MDA-MB-435, in the assay with SK-MEL-28 melanoma, in the assay on CAKI-1 renal, in the assay on HS 578T breast, with BT-549 breast and in the assay with UO-31 renal was > 100 µM throughout.

Take `COc1ccccc1-c1nc[nH]c1-c1ccccc1OC`: the TGI in the assay with SK-MEL-28 melanoma, with CAKI-1 renal, in the assay on OVCAR-4 ovarian, in the assay on BT-549 breast, in the assay with UO-31 renal and in the assay with T-47D breast was > 100 µM in each case.

On to `Cc1ccnc2[nH]c(-c3ccc(Cl)cc3)cc(=O)c12`, for which the TGI in the assay on SK-MEL-28 melanoma, with CAKI-1 renal, in the assay on HS 578T breast, in the assay on OVCAR-4 ovarian, in the assay on BT-549 breast and in the assay with UO-31 renal was > 100 µM throughout. For the same molecule, in the assay on T-47D breast, the TGI is > 100 µM.

Regarding `CN1C(=O)c2c(c3c4ccccc4n(C)c3c3c2c2ccccc2n3C)C1=O`, the TGI in the assay with MDA-MB-435, with SK-MEL-28 melanoma, in the assay on CAKI-1 renal, in the assay on OVCAR-4 ovarian, with BT-549 breast and in the assay on UO-31 renal was > 100 µM in each case. In addition, the TGI with T-47D breast is > 100 µM.

Consider `Cn1c(=Nc2ccccc2[N+](=O)[O-])sc2ccccc21`, for which the TGI with MDA-MB-435 is > 100 µM; in the assay on SK-MEL-28 melanoma it was > 100 µM; with CAKI-1 renal, > 100 µM; in the assay with HS 578T breast, > 100 µM; in the assay on OVCAR-4 ovarian, 86.9 µM; with UO-31 renal it was > 100 µM. The TGI with T-47D breast was > 100 µM.

Consider `Nc1nc(Cl)cc(OCC2(CO)CCCCC2)n1`, for which the TGI with MDA-MB-435, with SK-MEL-28 melanoma, in the assay with HS 578T breast and with OVCAR-4 ovarian was > 100 µM each time.

`Cc1ccc2c(=O)cc(-c3ccccc3)[nH]c2n1`: the TGI is 0.0321 µM in the assay with MDA-MB-435; > 100 µM in the assay with SK-MEL-28 melanoma; > 72.9 µM in the assay with CAKI-1 renal; > 100 µM in the assay with OVCAR-4 ovarian; > 100 µM with BT-549 breast; > 81.8 µM in the assay with UO-31 renal. Moreover, the TGI in the assay on T-47D breast is > 100 µM.

Turning to `COC(=O)C1=C(C(=O)OC)SC2(S1)C(C(=O)OC)=C(C(=O)OC)Sc1c2ssc1=O`, the TGI in the assay on MDA-MB-435 stood at 4.36 µM; with SK-MEL-28 melanoma it was 3.26 µM; in the assay on CAKI-1 renal, 2.93 µM; in the assay with HS 578T breast it was 13.4 µM; in the assay on OVCAR-4 ovarian, 2.79 µM; in the assay with BT-549 breast it was 2.89 µM. The molecule also returned a TGI in the assay on UO-31 renal of 3.15 µM.

Consider `C#CCn1c(=O)c2cc(OC)c(OC)cc2n(CC#C)c1=O`, for which the TGI in the assay with MDA-MB-435, in the assay on SK-MEL-28 melanoma, in the assay with CAKI-1 renal, in the assay on HS 578T breast, with OVCAR-4 ovarian and in the assay on UO-31 renal was > 10 µM in each case. Further, the TGI with T-47D breast is > 10 µM.

For the molecule `COc1ccc(CNCCN2C(=O)c3ccc4c5c(ccc(c35)C2=O)C(=O)N(CCNCc2ccc(OC)c(OC)c2OC)C4=O)c(OC)c1OC`, the GI50 in the assay with MDA-MB-435 was 0.25 µM; in the assay on HS 578T breast, 0.985 µM; with OVCAR-4 ovarian, 0.0762 µM. In addition, the TGI in the assay with MDA-MB-435 was 0.801 µM; with HS 578T breast, 2.81 µM; in the assay with OVCAR-4 ovarian, 0.146 µM.
